Read-outs that look alike come from different tables or passages of the source.
Legend:
[1] = system: HIV-1 K103N mutant strain; assay: Anti-HIV-1 activity in MT-4 cells (MTT method), K103N; format: cell-based; details: Human immunodeficiency virus 1, MT4, read-out: EC50 (nM) K103N
Protocol: (§1) Selected compounds were screened for inhibitory activity against HIV-1 using MTT method as describe previously by Christophe. Pannecouque et al. Nat. Protoc. 3 (2008) 427-434, and Rudi Pauwels et al. J. Virol. Methods 20 (1988) 309-321. Briefly, MT-4 cells infected with HIV-1 can only survive for 5 to 7 days without any treatment, but when HIV-1 inhibitors were added, they can protect MT-4 cell from cytopathic. Serial solution of compounds was added to MT-4 cells after infected with HIV-1, MTT method was used to detect the survival rate after culture for 5 to 7 days. EC50 value was defined as compound concentration required to achieve 50% protection of MT-4 cells against HIV-1-induced cytopathic effect. In vitro anti-HIV-1 assay was supported by Rega Institute for Medical Research.
(§2) • (1) MT-4 cells infected with HIV-1 viral strains (IIIB, L100I, K103N, Y181C, Y188L, E138K, F227L/V106A, Y181C/K103N) were provided by Rega Institute for Medical Research, Katholieke Universiteit Leuven, Belgium. • (2) MTT and formazan: sigma Chemical Co. • (3) Preparation of compounds: Stock solutions (10×final concentration) of test compounds is diluted with double distilled water for 5 folds and 5 concentrations of one compound are prepared. • (4) Reference drugs: Nevirapine (NVP), Efavirenz (EFV), Etravirine (ETV), Rilpivirine (RPV) and Azidothymidine (AZT). • (5) Method (MTT method): Serial five-fold dilutions of test compounds were added to cultured MT-4 cells infected with HIV-1, after 5 to 7 days, MTT was added and cultured for a few hours. Medium was removed and lysate was added followed by formazan, OD value was determined in 690 nm and 540 nm by microplate reader, and EC50 value was calculated. 2. Method
(§3) The MTT method was described briefly as follows: 96-well plastic microtiter trays were filled with 100 μL of complete medium. Subsequently, serial of tested compounds was added (25 μL) to two series of triplicate wells so as to allow simultaneous evaluation of their effects on HIV- and mock infected cells. 50 μL of 1×10^4 cells/mL MT-4 cells were added. After cultured for 5 days at 37° C. in humidified atmosphere in the presence of 5% CO2, MTT was added and cultured for another 2 h, then medium was removed and 100 μL isopropanol solution was added to lyse the cells. Formazan crystals were added and vibrated platform shaker for 10 min to solubilize the formazan crystals. Absorbances at 690 nm and 540 nm were read by using spectrophotometrically. EC50 was defined as the concentration achieving 50% protection from the cytopathic effect of the virus in infected cells.
(§4) Selected compounds prepared as described above were assayed in MT-4 cells infected with wide-type IIIB, L100I, K103N, Y181C, Y188L, E138K or double mutant RES056 (Y181C/K103N) and F227L/V106A HIV-1 strains. Nevirapine, Efavirenz, Etravirine, Rilpivirine and Azidothymidine were selected as reference drugs. The results were listed below as EC50 value (nM)

[2] = system: HIV-1 F227L/V106A double mutant strain; assay: Anti-HIV-1 activity in MT-4 cells (MTT method), F227L/V106A; format: cell-based; details: Human immunodeficiency virus 1, MT4, read-out: EC50 (nM) F227L/V106A
Protocol: as §1, §2, §3, §4

[3] = system: HIV-1 E138K mutant strain; assay: Anti-HIV-1 activity in MT-4 cells (MTT method), E138K; format: cell-based; details: Human immunodeficiency virus 1, MT4, read-out: EC50 (nM) E138K
Protocol: as §1, §2, §3, §4

[4] = system: wide-type HIV-1 (strain IIIB); assay: Anti-HIV-1 activity in MT-4 cells (MTT method), wild-type; format: cell-based
Protocol: as §1, §2, §3, §4

[5] = system: HIV-1 L100I mutant strain; assay: Anti-HIV-1 activity in MT-4 cells (MTT method), L100I; format: cell-based; details: Human immunodeficiency virus 1, MT4, read-out: EC50 (nM) L100I
Protocol: as §1, §2, §3, §4

[6] = system: HIV-1 double mutant RES056 (Y181C/K103N); assay: Anti-HIV-1 activity in MT-4 cells (MTT method), RES056; format: cell-based; details: Human immunodeficiency virus 1, MT4, read-out: EC50 (nM) Y181C/K103N
Protocol: as §1, §2, §3, §4

[7] = system: HIV-1 Y188L mutant strain; assay: Anti-HIV-1 activity in MT-4 cells (MTT method), Y188L; format: cell-based; details: Human immunodeficiency virus 1, MT4, read-out: EC50 (nM) Y188L
Protocol: as §1, §2, §3, §4

[8] = system: HIV-1 Y181C mutant strain; assay: Anti-HIV-1 activity in MT-4 cells (MTT method), Y181C; format: cell-based; details: Human immunodeficiency virus 1, MT4, read-out: EC50 (nM) Y181C
Protocol: as §1, §2, §3, §4

[9] = Human immunodeficiency virus 1, IIIB, MT4, read-out: EC50 (nM) wt

| Structure (SMILES) | EC50 [1] [nM] | EC50 [2] [nM] | melting point [°C] | EC50 [3] [nM] | EC50 [4, 9] [nM] | EC50 [5] [nM] | EC50 [6] [nM] | EC50 [7] [nM] | EC50 [8] [nM] | Activity against wide-type HIV-1, folds better than NVP ([4]; wide-type HIV-1, relative to NVP) [folds] | Activity against wide-type HIV-1 compared with RPV ([4]; wide-type HIV-1, relative to RPV) | EC50 ([4]; Human immunodeficiency virus 1, MT4, MT-4 cells, 50% protection against HIV-1-induced cytopathicity, wt (IIIB), read-out: EC50 (nM) wt) [nM] |
| --- | --- | --- | --- | --- | --- | --- | --- | --- | --- | --- | --- | --- |
| Cc1cc(C#N)cc(C)c1Oc1nc(Nc2ccc(C#N)cc2)nc2c1[S+]([O-])CCC2 (stereo not shown) [IA-1-3, 4-((2-((4-cyanophenyl)amino)-5-oxido-7,8-dihydro-6H-thiopyrano[3,2-d]pyrimidin-4-yl)oxy)-3,5-dimethylbenzonitrile] | 10 to 100 | > 100 | 247 to 249 | 10 to 100 | < 10 | > 100 | > 100 | 10 to 100 | 10 to 100 |  |  |  |
| Cc1cc(C#N)cc(C)c1Oc1nc(Nc2ccc(C#N)cc2)nc2c1S(=O)(=O)CCC2 [IA-1-4, 4-((2-((4-cyanophenyl)amino)-5,5-dioxido-7,8-dihydro-6H-thiopyrano[3,2-d]pyrimidin-4-yl)oxy)-3,5-dimethylbenzonitrile] | < 10 | 10 to 100 | 263 to 265 | 10 to 100 | < 10 | 10 to 100 | 10 to 100 | 10 to 100 | 10 to 100 | 30 | comparable |  |
| O=C1Nc2ccc(Cl)cc2[C@@](C#CC2CC2)(C(F)(F)F)O1 [EFV, Efavirenz, reference compound] | 10 to 100 | 10 to 100 |  | < 10 |  | 10 to 100 | > 100 | 10 to 100 | < 10 |  |  | < 10 |
| Cc1cc(C#N)cc(C)c1Oc1nc(NC2CCN(Cc3ccc(C#N)cc3)CC2)nc2c1SCCC2 [IIA-1-5, 4-((2-((1-(4-cyanobenzyl)piperidin-4-yl)amino)-7,8-dihydro-6H-thiopyrano[3,2-d]pyrimidin-4-yl)oxy)-3,5-dimethylbenzonitrile] | 10 to 100 | > 100 |  | 10 to 100 | < 10 | 10 to 100 | > 100 | 10 to 100 | 10 to 100 |  |  |  |
| Cc1cc(/C=C/C#N)cc(C)c1Nc1ccnc(Nc2ccc(C#N)cc2)n1 [RPV, Rilpivirine, reference compound] | < 10 | 10 to 100 |  | < 10 | < 10 | < 10 | 10 to 100 | 10 to 100 | < 10 |  |  |  |
| Cc1cc(C#N)cc(C)c1Oc1nc(NC2CCN(Cc3ccc(C(N)=O)cc3)CC2)nc2c1SCCC2 [IIA-1-8, 4-((4-((4-(4-cyano-2,6-dimethylphenoxy)-7,8-dihydro-6H-thiopyrano[3,2-d]pyrimidin-2-yl)amino)piperidin-1-yl)methyl)benzamide] | < 10 | > 100 |  | 10 to 100 | < 10 | 10 to 100 | 10 to 100 | 10 to 100 | 10 to 100 |  |  |  |
| Cc1cc(C#N)cc(C)c1Oc1nc(Nc2ccc(C#N)cc2)nc2c1SCCC2 [IA-1-1, 4-((2-((4-cyanophenyl)amino)-7,8-dihydro-6H-thiopyrano[3,2-d]pyrimidin-4-yl)oxy)-3,5-dimethylbenzonitrile] | < 10 | 10 to 100 | 253 to 254 | 10 to 100 | < 10 | 10 to 100 | 10 to 100 | 10 to 100 | 10 to 100 |  |  |  |
| Cc1cc(/C=C/C#N)cc(C)c1Oc1nc(Nc2ccc(C#N)cc2)nc2c1SCCC2 [IA-1-2, (E)-4-((4-(4-(2-cyanovinyl)-2,6-dimethylphenoxy)-7,8-dihydro-6H-thiopyrano[3,2-d]pyrimidin-2-yl)amino)benzonitrile] | < 10 | 10 to 100 |  | 10 to 100 | < 10 | < 10 | 10 to 100 | 10 to 100 | 10 to 100 |  |  |  |
| CCOC(=O)c1ccc(CN2CCC(Nc3nc4c(c(Oc5c(C)cc(C#N)cc5C)n3)SCCC4)CC2)cc1 [IIA-1-10, ethyl 4-((4-((4-(4-cyano-2,6-dimethylphenoxy)-7,8-dihydro-6H-thiopyrano[3,2-d]pyrimidin-2-yl)amino)piperidin-1-yl)methyl)benzoate] | 10 to 100 | > 100 |  | > 100 | 10 to 100 | > 100 | > 100 | > 100 | > 100 |  |  |  |
| Cc1cc(C#N)cc(C)c1Oc1nc(NC2CCN(Cc3ccc(NS(C)(=O)=O)cc3)CC2)nc2c1SCCC2 [IIA-1-14, N-(4-((4-((4-(4-cyano-2,6-dimethylphenoxy)-7,8-dihydro-6H-thiopyrano[3,2-d]pyrimidin-2-yl)amino)piperidin-1-yl)methyl)phenyl) methanesulfonamide] | < 10 | > 100 |  | < 10 | < 10 | 10 to 100 | > 100 | 10 to 100 | < 10 |  |  |  |
